Measured values as given in patent US20110082162A1, “SYNERGISTIC FUNGICIDAL COMPOSITION CONTAINING 5-FLUOROCYTOSINE FOR FUNGAL CONTROL IN CEREALS” (DOW AGROSCIENCES LLC, priority 2009, published 2011).

What was measured:
[1] = test system: Septoria tritici (SEPTTR; Mycosphaerella graminicola); assay: 1-day protectant (1DP) test vs. leaf blotch of wheat, fungicide applied 1 day before inoculation; format: in vivo, Septoria tritici on wheat plants (variety Yuma); conditions: Zymoseptoria tritici, read-out: % DC Obs (percent disease control observed)
Protocol: (§1) Evaluation of Curative and Protectant Activity of Fungicide Mixtures vs. Leaf Blotch of Wheat (Mycosphaerella graminicola; anamorph: Septoria tritici; Bayer code: SEPTTR)
(§2) Wheat plants (variety Yuma) were grown from seed in a greenhouse in plastic pots with a surface area of 27.5 square centimeters (cm2) containing 50% mineral soil/50% soil-less Metro mix, with 8-12 seedlings per pot. The plants were employed for testing when the first leaf was fully emerged, which typically took 7 to 8 days after planting. Test plants were inoculated with an aqueous spore suspension of Septoria tritici either 3 days prior to (3-day curative test; 3DC) or 1 day after fungicide treatments (1-day protectant test; 1DP). After inoculation the plants were kept at 100% relative humidity (one day in a dark dew chamber followed by two days in a lighted mist chamber) to permit spores to germinate and infect the leaf. The plants were then transferred to a greenhouse until disease symptoms were fully expressed.
(§3) Treatments consisted of fungicides, including a compound of Formula I, epoxiconazole, prothioconazole, azoxystrobin, pyraclostrobin, penthiopyrad, isopyrazam, bixafen, boscalid, chlorothalonil and isobutyric acid (3S,6S,7R,8R)-8-benzyl-3-[(3-isobutyryloxymethoxy-4-methoxypyridine-2-carbonyl)-amino]-6-methyl-4,9-dioxo-[1,5]dioxonan-7-yl ester (compound A), applied either individually or as two-way mixtures with a compound of Formula I. 1% of water solution of a compound with Formula I was used in the tests. Technical grades of other materials were dissolved in acetone to make stock solutions, which were then used to perform three-fold dilutions in acetone either for each individual fungicide component or for the two-way mixtures. Desired fungicide rates were obtained after mixing dilutions with nine volumes of water containing 110 parts per million (ppm) Triton X-100. Ten milliliter (mL) fungicide solutions were applied onto six pots of plants using an automated booth sprayer, which utilized two 6218-1/4 JAUPM spray nozzles operating at 20 pounds per square inch (psi) set at opposing angles to cover both leaf surfaces. All sprayed plants were allowed to air dry prior to further handling. Control plants were sprayed in the same manner with the solvent blank.
(§4) When disease reached 80 to 100% on the control plants, infection levels were assessed on treated plants visually and scored on a scale of 0 to 100 percent. Percentage of disease control was then calculated using the ratio of disease on treated plants relative to control plants.
(§5) Colby's equation was used to determine the fungicidal effects expected from the mixtures. (See Colby, S. R. Calculation of the synergistic and antagonistic response of herbicide combinations. Weeds 1967, 15, 20-22.)
(§6) The following equation was used to calculate the expected activity of mixtures containing two active ingredients, A and B:
(§7) A=observed efficacy of active component A at the same concentration as used in the mixture;
(§8) B=observed efficacy of active component B at the same concentration as used in the mixture.

[2] = test system: Septoria tritici (SEPTTR; Mycosphaerella graminicola); assay: 3-day curative (3DC) test vs. leaf blotch of wheat, inoculation 3 days before fungicide treatment; format: in vivo, Septoria tritici on wheat plants (variety Yuma); conditions: Zymoseptoria tritici, read-out: % DC Obs (percent disease control observed); for pest or weed control at 0.6 ppm: applied alone at 0.6 ppm; for pest or weed control at 1.8 ppm: applied alone at 1.8 ppm
Protocol: as §1, §2, §3, §4, §5, §6, §7, §8

[3] = 1DP SEPTTR, applied alone at 0.6 ppm
[4] = 1DP SEPTTR, applied alone at 1.8 ppm

In the case of Fc1ccc([C@]2(Cn3cncn3)O[C@H]2c2ccccc2Cl)cc1 (racemic) [Epoxiconazole, rel-1-[[(2R,3S)-3-(2-chlorophenyl)-2-(4-fluorophenyl)oxiranyl]methyl]-1H-1,2,4-triazole], the pest or weed control at 0.0375 ppm ([1]; 1DP SEPTTR, applied alone at 0.0375 ppm) is reported as 15% and the pest or weed control at 0.125 ppm ([1]; 1DP SEPTTR, applied alone at 0.125 ppm) is reported as 27%.

Molecule CO/C=C(/C(=O)OC)c1ccccc1Oc1cc(Oc2ccccc2C#N)ncn1 [Azoxystrobin, methyl (αE)-2-[[6-(2-cyanophenoxy)-4-pyrimidinyl]oxy]-α-(methoxymethylene)benzeneacetate] has a pest or weed control at 0.6 ppm [1, 3] of 21%, a pest or weed control at 1.8 ppm [1, 4] of 32% and a pest or weed control at 0.6 ppm ([2]; 3DC SEPTTR) of 22%. The pest or weed control at 1.8 ppm ([2]; 3DC SEPTTR) was 59%.

Cn1cc(C(=O)Nc2ccc(F)cc2-c2ccc(Cl)c(Cl)c2)c(C(F)F)n1 [Bixafen, N-(3′,4′-dichloro-5-fluoro[1,1′-biphenyl]-2-yl)-3-(difluoromethyl)-1-methyl-1H-pyrazole-4-carboxamide] gave a pest or weed control at 0.6 ppm [1] of 14% and a pest or weed control at 1.8 ppm [1] of 71%.

Molecule O=C(Nc1ccccc1-c1ccc(Cl)cc1)c1cccnc1Cl [Boscalid, 2-chloro-N-(4′-chloro[1,1′-biphenyl]-2-yl)-3-pyridinecarboxamide] has a pest or weed control at 1.8 ppm [1, 4] of 9% and a pest or weed control at 1.8 ppm ([2]; 3DC SEPTTR) of 8%.

With N#Cc1c(Cl)c(Cl)c(Cl)c(C#N)c1Cl [Chlorothalonil, 2,4,5,6-tetrachloro-1,3-benzenedicarbonitrile] the pest or weed control at 13.5 ppm ([1]; 1DP SEPTTR, applied alone at 13.5 ppm) was 13%, the pest or weed control at 42 ppm ([1]; 1DP SEPTTR, applied alone at 42 ppm) was 8% and the pest or weed control at 13.5 ppm ([2]; 3DC SEPTTR, applied alone at 13.5 ppm) was 0%. For the same molecule, the pest or weed control at 42 ppm ([2]; 3DC SEPTTR, applied alone at 42 ppm) was 0%.

COc1ccnc(C(=O)N[C@H]2COC(=O)[C@H](Cc3ccccc3)[C@@H](OC(=O)C(C)C)[C@H](C)OC2=O)c1OCOC(=O)C(C)C [Compound A, Isobutyric acid (3S,6S,7R,8R)-8-benzyl-3-[(3-isobutyryloxymethoxy-4-methoxy-pyridine-2-carbonyl)-amino]-6-methyl-4,9-dioxo-[1,5]dioxonan-7-yl ester] showed a pest or weed control at 1.35 ppm [2] of 6%.

In the case of Nc1nc(O)ncc1F [Compound I, 5-FLUOROCYTOSINE], the pest or weed control at 0.03 ppm ([1]; 1DP SEPTTR, applied alone at 0.03 ppm) is reported as 13%, the pest or weed control at 0.1 ppm ([1]; 1DP SEPTTR, applied alone at 0.1 ppm) is reported as 11% and the pest or weed control at 0.3 ppm ([1]; 1DP SEPTTR, applied alone at 0.3 ppm) is reported as 8%. The pest or weed control at 0.9 ppm ([1]; 1DP SEPTTR, applied alone at 0.9 ppm) was 18%, the pest or weed control at 2.8 ppm ([1]; 1DP SEPTTR, applied alone at 2.8 ppm) was 79% and the pest or weed control at 0.03 ppm ([2]; 3DC SEPTTR, applied alone at 0.03 ppm) was 4%. For the same molecule, the pest or weed control at 0.1 ppm ([2]; 3DC SEPTTR, applied alone at 0.1 ppm) was 33%, the pest or weed control at 0.3 ppm ([2]; 3DC SEPTTR, applied alone at 0.3 ppm) was 67% and the pest or weed control at 0.9 ppm ([2]; 3DC SEPTTR, applied alone at 0.9 ppm) was 75%. For the same molecule, the pest or weed control at 2.8 ppm ([2]; 3DC SEPTTR, applied alone at 2.8 ppm) was 94%.

CC(C)C1C2CCC1c1c(NC(=O)c3cn(C)nc3C(F)F)cccc12 (stereo not drawn) [Isopyrazam, 3-(difluoromethyl)-1-methyl-N-[1,2,3,4-tetrahydro-9-(1-methylethyl)-1,4-methanonaphthalen-5-yl]-1H-pyrazole-4-carboxamide] gave a pest or weed control at 0.06 ppm [1] of 5%, a pest or weed control at 0.2 ppm [1] of 9% and a pest or weed control at 0.6 ppm [1] of 19%. It also gave a pest or weed control at 0.06 ppm [2] of 22%.

CC(C)CC(C)c1sccc1NC(=O)c1cn(C)nc1C(F)(F)F (stereo not drawn) [Penthiopyrad, N-[2-(1,3-dimethylbutyl)-3-thienyl]-1-methyl-3-(trifluoromethyl)-1H-pyrazole-4-carboxamide] was tested, and the pest or weed control at 0.6 ppm [1, 3] was 7%, the pest or weed control at 1.8 ppm [1, 4] was 30% and the pest or weed control at 1.8 ppm ([2]; 3DC SEPTTR) was 24%.

OC(Cc1ccccc1Cl)(Cn1[nH]cnc1=S)C1(Cl)CC1 (stereo not drawn) [Prothioconazole, 2-[2-(1-chlorocyclopropyl)-3-(2-chlorophenyl)-2-hydroxypropyl]-1,2-dihydro-3H-1,2,4-triazole-3-thione] gave a pest or weed control at 0.6 ppm [1, 3] of 18%, a pest or weed control at 1.8 ppm [1, 4] of 25% and a pest or weed control at 0.6 ppm ([2]; 3DC SEPTTR) of 12%. For the same molecule, the pest or weed control at 1.8 ppm ([2]; 3DC SEPTTR) was 25%.
